This note sets out measurements from patent US10457654B2 (GENENTECH, INC., priority 2017, dated 2019).

Assay [1] concerns the target T1, hNav1.7 (Homo sapiens (Human), UniProt Q15858). The experiment in a line: Tritiated compound binding to membranes from cells expressing hNav1.7 and the β1 subunit, competitive binding (LBA, Ex. 243A). The conditions noted are these: 100 pM [3H]compound, 18 h, room temperature; read-out: Nav1.7 LBA (Ex. 243A) IC50. How it is done: Tritiated Compound Binding to Membranes Isolated from Cells that Heterologously Express hNav1.7 and the β1 Subunit
Preparation of membranes containing recombinantly expressed sodium channels: Frozen recombinant cell pellets were thawed on ice and diluted to 4 times the cell pellet weight with ice cold 50 mM Tris HCl, pH 7.4 buffer. The cell suspensions were homogenized on ice using a motorized glass dounce homogeniser. Homogenates were further diluted 8.4 times with ice cold 50 mM Tris HCl, pH 7.4 buffer and then centrifuged at 200×g at 4° C. for 15 min. The supernatants were collected and centrifuged at 10000×g at 4° C. for 50 min. […] The homogenized membranes were then processed through a syringe equipped with a 26 gauge needle. Protein concentrations were determined by Bradford Assay and the membranes were stored at −80° C.
Radioligand Binding Studies: Saturation experiments. A competitive NaV1.7 inhibitor having a methyl group was tritiated. Three tritiums were incorporated in place of methyl hydrogens to generate [^3H]compound. Binding of this radioligand was performed in 5 mL borosilicate glass test tubes at room temperature. […] Non-specific binding was determined in the presence of 1 μM unlabeled compound. After 18h, the reactants were filtered through GF/C glass fiber filters presoaked in 0.5% w/v polyethylene imine. […] [^3H]compound bound to filters was quantified by liquid scintillation counting.
Competitive binding experiments: Binding reactions were performed in 96-well polypropylene plates at room temperature for 18h. In 360 μL, membranes were incubated with 100 pM [^3H]compound and increasing concentrations of Test Compound. Non-specific binding was defined in the presence of 1 μM unlabeled compound. Reactions were transferred and filtered through 96-well glass fiber/C filter plates presoaked with 0.5% polyethylene imine. The filtered reactions were washed 5 times with 200 μL ice cold buffer containing 0.25% BSA. Bound radioactivity was determined by liquid scintillation counting.
Data Analysis: For saturation experiments, non-specific binding was subtracted from total binding to provide specific binding and these values were recalculated in terms of pmol ligand bound per mg protein. Saturation curves were constructed and dissociation constants were calculated using the single site ligand binding model: Beq=(Bmax*X)/(X+Kd), where Beq is the amount of ligand bound at equilibrium, Bmax is the maximum receptor density, Kd is the dissociation constant for the ligand, and X is the free ligand concentration. For competition studies percent inhibition was determined and IC50 values were calculated using a 4 parameter logistic model (% inhibition=(A+((B−A)/(1+((x/C)^D)))) using XLfit, where A and B are the maximal and minimum inhibition respectively, C is the IC50 concentration and D is the (Hill) slope.
Target sequence in this assay (Q15858 whole entry, looked up): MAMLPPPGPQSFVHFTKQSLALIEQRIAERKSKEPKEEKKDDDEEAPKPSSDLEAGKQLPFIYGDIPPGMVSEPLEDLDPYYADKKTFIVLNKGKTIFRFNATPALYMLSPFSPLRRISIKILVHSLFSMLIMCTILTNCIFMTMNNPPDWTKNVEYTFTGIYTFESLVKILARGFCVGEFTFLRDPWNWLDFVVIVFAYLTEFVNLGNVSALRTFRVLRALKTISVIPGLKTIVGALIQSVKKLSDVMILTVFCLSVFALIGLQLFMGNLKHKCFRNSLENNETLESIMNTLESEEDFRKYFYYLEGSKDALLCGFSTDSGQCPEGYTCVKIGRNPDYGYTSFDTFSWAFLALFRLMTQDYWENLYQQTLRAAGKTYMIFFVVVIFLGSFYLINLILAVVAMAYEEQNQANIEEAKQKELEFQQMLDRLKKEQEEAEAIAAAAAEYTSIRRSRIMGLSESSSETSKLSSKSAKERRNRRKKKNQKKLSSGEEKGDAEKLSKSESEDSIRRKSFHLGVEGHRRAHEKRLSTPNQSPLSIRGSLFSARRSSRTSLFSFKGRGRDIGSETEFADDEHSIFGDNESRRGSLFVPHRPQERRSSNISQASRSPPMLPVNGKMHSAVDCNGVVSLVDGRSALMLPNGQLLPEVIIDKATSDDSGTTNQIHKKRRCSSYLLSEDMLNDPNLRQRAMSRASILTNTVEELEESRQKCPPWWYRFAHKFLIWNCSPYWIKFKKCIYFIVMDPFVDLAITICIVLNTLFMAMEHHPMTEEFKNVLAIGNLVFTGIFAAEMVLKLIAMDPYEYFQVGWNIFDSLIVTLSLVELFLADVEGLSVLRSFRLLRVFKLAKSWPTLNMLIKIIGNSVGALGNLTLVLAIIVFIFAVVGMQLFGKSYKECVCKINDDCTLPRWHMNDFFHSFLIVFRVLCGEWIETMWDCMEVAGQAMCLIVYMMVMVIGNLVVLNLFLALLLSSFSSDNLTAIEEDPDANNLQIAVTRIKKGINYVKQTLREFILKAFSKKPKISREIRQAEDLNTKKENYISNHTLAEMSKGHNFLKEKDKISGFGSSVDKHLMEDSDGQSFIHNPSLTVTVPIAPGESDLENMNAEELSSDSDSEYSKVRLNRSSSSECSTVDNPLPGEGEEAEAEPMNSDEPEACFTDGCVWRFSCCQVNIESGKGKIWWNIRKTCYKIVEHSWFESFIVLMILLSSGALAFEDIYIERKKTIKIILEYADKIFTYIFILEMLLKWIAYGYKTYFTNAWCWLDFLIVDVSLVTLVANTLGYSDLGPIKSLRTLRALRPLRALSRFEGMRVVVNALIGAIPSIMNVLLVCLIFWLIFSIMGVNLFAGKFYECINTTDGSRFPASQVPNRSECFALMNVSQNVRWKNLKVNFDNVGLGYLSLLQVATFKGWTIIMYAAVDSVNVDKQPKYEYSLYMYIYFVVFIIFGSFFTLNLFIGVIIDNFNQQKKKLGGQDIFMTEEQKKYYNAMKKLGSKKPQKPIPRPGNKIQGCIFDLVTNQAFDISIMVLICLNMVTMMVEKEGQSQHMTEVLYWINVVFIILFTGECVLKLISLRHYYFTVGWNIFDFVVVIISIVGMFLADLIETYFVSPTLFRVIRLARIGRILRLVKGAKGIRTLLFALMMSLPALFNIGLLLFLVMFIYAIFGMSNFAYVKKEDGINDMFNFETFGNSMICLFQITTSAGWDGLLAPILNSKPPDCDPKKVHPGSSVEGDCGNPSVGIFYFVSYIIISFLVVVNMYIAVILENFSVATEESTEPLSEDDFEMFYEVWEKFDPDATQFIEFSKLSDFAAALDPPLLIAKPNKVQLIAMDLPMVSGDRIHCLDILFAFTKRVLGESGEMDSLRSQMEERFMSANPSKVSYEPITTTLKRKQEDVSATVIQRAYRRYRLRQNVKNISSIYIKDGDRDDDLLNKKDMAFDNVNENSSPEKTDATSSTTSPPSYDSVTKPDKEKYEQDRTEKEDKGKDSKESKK
Target sequence in this assay (Q07699 whole entry partner, looked up): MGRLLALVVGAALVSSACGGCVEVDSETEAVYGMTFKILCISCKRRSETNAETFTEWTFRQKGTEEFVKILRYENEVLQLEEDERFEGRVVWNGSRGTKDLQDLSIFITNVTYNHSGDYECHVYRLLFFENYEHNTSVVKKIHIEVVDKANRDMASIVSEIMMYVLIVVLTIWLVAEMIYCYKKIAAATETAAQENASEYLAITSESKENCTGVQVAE

The target of assay [2] is T1, hNav1.7. The experiment in a line: Tritiated compound binding to membranes from cells expressing hNav1.7 and the β1 subunit, modified protocol (LBA, Ex. 243B). The conditions noted are these: 300 pM [3H]compound, room temperature, read-out: Nav1.7 LBA (Ex. 243B) IC50.
Target sequence in this assay (Q15858 whole entry, looked up): as the sequence (Q15858 whole entry, looked up) above
Target sequence in this assay (Q07699 whole entry partner, looked up): as the sequence (Q07699 whole entry partner, looked up) above
The target of assay [3] is T1, hNav1.7. Description: Patch voltage clamp electrophysiology assay (EP), Syncropatch 384PE, CHO cells expressing Nav1.7. The conditions noted are these: holding potential -50 mV; […] compound incubation; read-out: EP_SP hNav1.7 (Ex. 243B) IC50. Type of assay: cell-based. The method in brief:
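Automated whole-cell patch clamp on CHO cells stably expressing human Nav1.7, CsCl/EGTA internal and NMDG/80 mM Na+ external (pH 7.4). From −50 mV holding, −10 mV step, 20 ms recovery at −150 mV, then second −10 mV pulse where block is measured; inhibition after 7.5 min compound incubation.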
Target sequence in this assay (Q15858 other isoform, or with tags, fused parts or gaps): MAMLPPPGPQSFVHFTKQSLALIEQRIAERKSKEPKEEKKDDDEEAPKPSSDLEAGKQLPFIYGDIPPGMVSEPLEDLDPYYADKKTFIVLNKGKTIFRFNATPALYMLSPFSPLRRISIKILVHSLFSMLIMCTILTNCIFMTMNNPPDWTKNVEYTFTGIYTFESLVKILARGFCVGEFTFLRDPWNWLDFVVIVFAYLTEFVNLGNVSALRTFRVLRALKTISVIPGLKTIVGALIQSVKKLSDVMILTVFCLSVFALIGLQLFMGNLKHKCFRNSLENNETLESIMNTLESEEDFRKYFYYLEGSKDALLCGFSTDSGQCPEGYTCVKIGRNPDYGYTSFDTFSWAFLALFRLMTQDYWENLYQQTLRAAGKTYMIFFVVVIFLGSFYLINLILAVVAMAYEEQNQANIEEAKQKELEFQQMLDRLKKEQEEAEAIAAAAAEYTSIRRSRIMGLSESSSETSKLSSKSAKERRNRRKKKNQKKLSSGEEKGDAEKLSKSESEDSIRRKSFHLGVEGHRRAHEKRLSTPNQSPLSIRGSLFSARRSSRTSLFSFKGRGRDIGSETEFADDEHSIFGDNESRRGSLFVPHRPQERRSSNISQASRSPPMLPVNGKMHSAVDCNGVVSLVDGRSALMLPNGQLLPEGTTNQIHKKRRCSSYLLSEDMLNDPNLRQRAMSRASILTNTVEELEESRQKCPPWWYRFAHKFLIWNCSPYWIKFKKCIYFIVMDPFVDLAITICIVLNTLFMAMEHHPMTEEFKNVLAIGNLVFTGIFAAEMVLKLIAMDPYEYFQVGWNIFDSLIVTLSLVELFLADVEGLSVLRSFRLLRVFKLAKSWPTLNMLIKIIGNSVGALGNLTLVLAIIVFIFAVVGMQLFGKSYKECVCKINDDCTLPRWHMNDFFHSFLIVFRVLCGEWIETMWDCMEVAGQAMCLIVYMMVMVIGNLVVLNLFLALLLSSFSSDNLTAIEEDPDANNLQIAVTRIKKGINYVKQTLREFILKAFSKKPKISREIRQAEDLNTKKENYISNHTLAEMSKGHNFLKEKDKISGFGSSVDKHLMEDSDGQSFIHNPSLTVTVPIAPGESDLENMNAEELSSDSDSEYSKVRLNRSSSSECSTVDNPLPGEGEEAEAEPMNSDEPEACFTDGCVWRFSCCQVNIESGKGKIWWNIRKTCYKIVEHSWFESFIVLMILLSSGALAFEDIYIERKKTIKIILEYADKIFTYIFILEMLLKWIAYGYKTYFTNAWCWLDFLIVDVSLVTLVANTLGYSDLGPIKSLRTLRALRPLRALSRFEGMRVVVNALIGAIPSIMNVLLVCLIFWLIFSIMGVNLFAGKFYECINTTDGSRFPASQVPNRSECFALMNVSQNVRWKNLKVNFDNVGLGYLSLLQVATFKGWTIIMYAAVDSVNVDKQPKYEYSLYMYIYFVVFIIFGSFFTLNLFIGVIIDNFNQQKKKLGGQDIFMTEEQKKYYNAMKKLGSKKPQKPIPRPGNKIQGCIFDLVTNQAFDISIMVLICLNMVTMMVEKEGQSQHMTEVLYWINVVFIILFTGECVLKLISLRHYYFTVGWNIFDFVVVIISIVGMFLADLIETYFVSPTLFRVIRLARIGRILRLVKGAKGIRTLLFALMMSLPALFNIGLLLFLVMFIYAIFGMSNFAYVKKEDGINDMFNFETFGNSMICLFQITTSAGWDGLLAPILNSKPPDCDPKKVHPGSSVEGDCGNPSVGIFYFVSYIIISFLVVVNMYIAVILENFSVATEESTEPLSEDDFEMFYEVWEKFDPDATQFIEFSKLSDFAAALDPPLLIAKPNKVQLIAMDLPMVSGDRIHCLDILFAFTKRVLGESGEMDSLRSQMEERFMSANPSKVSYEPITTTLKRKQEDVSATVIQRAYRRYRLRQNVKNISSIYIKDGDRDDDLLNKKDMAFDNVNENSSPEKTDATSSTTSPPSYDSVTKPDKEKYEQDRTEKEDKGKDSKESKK
For orientation: Patch clamp records ionic current or voltage across a cell membrane.

Each structure is given as a SMILES string. Structures can show the parent of a compound that is named as a salt.

Usually IC50 stands for the point on the concentration scale where inhibition reaches its midpoint. Turning to `CN(C)[C@H]1CC[C@@H](C(F)(F)F)C[C@@H]1Nc1cc(F)c(S(=O)(=O)Nc2nccs2)cc1Cl` [Example 76, 5-chloro-4-(((1S,2S,5R)-2-(dimethylamino)-5-(trifluoromethyl)cyclohexyl)amino)-2-fluoro-N-(thiazol-2-yl)benzenesulfonamide], the IC50 at hNav1.7 [1] is 116 nM.
The same measure, in the same setting: as for `CNC(=O)CN(C)[C@H]1CCCC[C@@H]1Nc1cc(F)c(S(=O)(=O)Nc2nccs2)cc1Cl` [Example 80, 2-(((1S,2S)-2-((2-chloro-5-fluoro-4-(N-(thiazol-2-yl)sulfamoyl)phenyl)amino)cyclohexyl)(methyl)amino)-N-methylacetamide formate], the figure is 122 nM.
As to `Cc1csc(NS(=O)(=O)c2cc(Cl)c(N[C@H]3CCCC[C@@H]3N(C)CCO)cc2F)n1` [Example 111, 5-chloro-2-fluoro-4-(((1S,2S)-2-((2-hydroxyethyl)(methyl)amino)cyclohexyl)amino)-N-(4-methylthiazol-2-yl)benzenesulfonamide], the IC50 at hNav1.7 [2] stood at 678 nM; at hNav1.7 [3] it was 23.4 nM.
Regarding `CN(C)[C@H]1C[C@@H](C(F)(F)F)CC[C@@H]1Nc1cc(F)c(S(=O)(=O)Nc2ccncn2)cc1C1CCC1` [Example 203, 5-cyclobutyl-4-(((1S,2S,4S)-2-(dimethylamino)-4-(trifluoromethyl)cyclohexyl)amino)-2-fluoro-N-(pyrimidin-4-yl)benzenesulfonamide], the IC50 turned out to be 80.6 nM on hNav1.7 [2] and 11.6 nM at hNav1.7 [3].
With `CC(C)CC(=O)N1CC(N(C)[C@H]2CCCC[C@@H]2Nc2cc(F)c(S(=O)(=O)Nc3nccs3)cc2Cl)C1` [Example 147, 5-Chloro-2-fluoro-4-(((1S,2S)-2-(methyl(1-(3-methylbutanoyl)azetidin-3-yl)amino)cyclohexyl)amino)-N-(thiazol-2-yl)benzenesulfonamide], the figures for the half-maximal inhibitory concentration (IC50) at hNav1.7 [2] and on hNav1.7 [3] were 275 nM and 27.2 nM, respectively.
For `C[N+](C)([O-])[C@H]1C[C@@H](c2cccc(C(F)(F)F)c2)CC[C@@H]1Nc1cc(F)c(S(=O)(=O)Nc2ccncn2)cc1Cl` [Example 235, (1S,2S,5S)-2-((2-Chloro-5-fluoro-4-(N-(pyrimidin-4-yl)sulfamoyl)phenyl)amino)-N,N-dimethyl-5-(3-(trifluoromethyl)phenyl)cyclohexanamine oxide], the values for the IC50 at hNav1.7 [2] and on hNav1.7 [3] were 11.8 nM and 8.14 nM, respectively.
For `O=S(=O)(Nc1ccncn1)c1cc(Cl)c(N[C@H]2CC[C@H](C(F)(F)F)C[C@@H]2N2CCCCC2)cc1F` [Example 206, 5-chloro-2-fluoro-4-(((1S,2S,4S)-2-(piperidin-1-yl)-4-(trifluoromethyl)cyclohexyl)amino)-N-(pyrimidin-4-yl)benzenesulfonamide], the figures for the IC50 at hNav1.7 [2] and at hNav1.7 [3] were 41.1 nM and 8.65 nM, respectively.
`O=S(=O)(Nc1cccc(F)n1)c1cc(Cl)c(N[C@H]2CCCC[C@@H]2N2CCCCC2)cc1F` [Example 123, 5-chloro-2-fluoro-N-(6-fluoropyridin-2-yl)-4-(((1S,2S)-2-(piperidin-1-yl)cyclohexyl)amino)benzenesulfonamide]: the figures for the IC50 on hNav1.7 [2] and at hNav1.7 [3] were 17.5 nM and 4.54 nM, respectively.
On to `O=S(=O)(Nc1nccs1)c1cc(Cl)c(N[C@H]2CCCC[C@@H]2N2CCC[C@@H](CO)C2)cc1F` [Example 169, 5-chloro-2-fluoro-4-(((1S,2S)-2-((R)-3-(hydroxymethyl)piperidin-1-yl)cyclohexyl)amino)-N-(thiazol-2-yl)benzenesulfonamide formate], for which the IC50 turned out to be 7.56 nM at hNav1.7 [2] and 3.34 nM at hNav1.7 [3].
For the molecule `CN(C1CN(C(=O)C2CC2)C1)[C@H]1CCCC[C@@H]1Nc1cc(F)c(S(=O)(=O)Nc2nccs2)cc1Cl` [Example 155, 5-Chloro-4-(((1S,2S)-2-((1-(cyclopropanecarbonyl)azetidin-3-yl)(methyl)amino)-cyclohexyl)amino)-2-fluoro-N-(thiazol-2-yl)benzenesulfonamide], the IC50 on hNav1.7 [2] was 130 nM; at hNav1.7 [3], 12.3 nM.
Regarding `CN(CCC(C)(C)O)[C@H]1CCCC[C@@H]1Nc1cc(F)c(S(=O)(=O)Nc2cccc(F)n2)cc1Cl` [Example 124, 5-chloro-2-fluoro-N-(6-fluoropyridin-2-yl)-4-(((1S,2S)-2-((3-hydroxy-3-methylbutyl)(methyl)amino)cyclohexyl)amino)benzenesulfonamide], the IC50 on hNav1.7 [2] is 1230 nM; at hNav1.7 [3] it was 107 nM.
For `CN(C)[C@H]1C[C@H]2[C@@H](C[C@@H]1Nc1cc(F)c(S(=O)(=O)Nc3nccs3)cc1Cl)C2(Cl)Cl` [Example 196, 5-Chloro-4-(((1R,3S,4S,6S)-7,7-dichloro-4-(dimethylamino)bicyclo[4.1.0]heptan-3-yl)amino)-2-fluoro-N-(thiazol-2-yl)benzenesulfonamide formate], in that order: 664 nM and 120 nM.
In the case of `CN(C)[C@H]1CCC(c2ccccc2F)C[C@@H]1Nc1cc(F)c(S(=O)(=O)Nc2nccs2)cc1Cl` (stereo in doubt) [Example 173, 5-chloro-4-(((1S,2S,5R)-2-(dimethylamino)-5-(2-fluorophenyl)cyclohexyl)amino)-2-fluoro-N-(thiazol-2-yl)benzenesulfonamide], the IC50 on hNav1.7 [2] worked out at 17.7 nM; at hNav1.7 [3], 2.6 nM.
Regarding `Cc1nc(NS(=O)(=O)c2cc(Cl)c(N[C@H]3CCCC[C@@H]3N(C)C)cc2F)sc1Cl` [Example 172, 5-Chloro-N-(5-chloro-4-methylthiazol-2-yl)-4-(((1S,2S)-2-(dimethylamino)cyclohexyl)amino)-2-fluorobenzenesulfonamide], the figures for the IC50 at hNav1.7 [2] and at hNav1.7 [3] were 38.2 nM and 12.3 nM, respectively.
For `CN(C)[C@H]1C[C@@H](c2cccc(C(F)(F)F)c2)CC[C@@H]1Nc1cc(F)c(S(=O)(=O)Nc2ccncn2)cc1C1CCC1` [Example 236, 5-cyclobutyl-4-(((1S,2S,4S)-2-(dimethylamino)-4-(3-(trifluoromethyl)phenyl)cyclohexyl)amino)-2-fluoro-N-(pyrimidin-4-yl)benzenesulfonamide], the IC50 at hNav1.7 [2] was 0.593 nM; on hNav1.7 [3] it was 1.6 nM.
Consider `CN(C)[C@H]1CCCC[C@@H]1N1CCOc2cc(S(=O)(=O)Nc3nccs3)c(F)cc21` [Example 132, 4-((1 S,2S)-2-(dimethylamino)cyclohexyl)-6-fluoro-N-(thiazol-2-yl)-3,4-dihydro-2H-benzo[b][1,4]oxazine-7-sulfonamide], for which the IC50 on hNav1.7 [2] came out at 306 nM; at hNav1.7 [3] it was 14 nM.
As for `N#CC1CCN([C@H]2CCCC[C@@H]2Nc2cc(F)c(S(=O)(=O)Nc3nccs3)cc2Cl)CC1` [Example 149, 5-Chloro-4-(((1S,2S)-2-(4-cyanopiperidin-1-yl)cyclohexyl)amino)-2-fluoro-N-(thiazol-2-yl)benzenesulfonamide formate], the IC50 was 520 nM at hNav1.7 [2] and 12.5 nM on hNav1.7 [3].
For `CN(C)[C@H]1C[C@H](F)CC[C@@H]1Nc1cc(F)c(S(=O)(=O)Nc2nccs2)cc1Cl` [Example 193, 5-chloro-4-(((1S,2S,4R)-2-(dimethylamino)-4-fluorocyclohexyl)amino)-2-fluoro-N-(thiazol-2-yl)benzenesulfonamide] the same measures were 911 nM and 39.4 nM.
For `CC(C)C(=O)N1CC(N(C)[C@H]2CCCC[C@@H]2Nc2cc(F)c(S(=O)(=O)Nc3nccs3)cc2Cl)C1` [Example 146, 5-Chloro-2-fluoro-4-(((1S,2S)-2-((1-isobutyrylazetidin-3-yl)(methyl)amino)cyclohexyl)amino)-N-(thiazol-2-yl)benzenesulfonamide], in that order: 154 nM and 15.4 nM.
Take `O=S(=O)(Nc1nccs1)c1cc(Cl)c(N[C@H]2CCCC[C@@H]2N2CCC[C@](F)(CO)C2)cc1F` [Example 212, 5-Chloro-2-fluoro-4-(((1S,2S)-2-((R)-3-fluoro-3-(hydroxymethyl)piperidin-1-yl)cyclohexyl)amino)-N-(thiazol-2-yl)benzenesulfonamide]: the IC50 came to 110 nM on hNav1.7 [2] and 6.59 nM on hNav1.7 [3].
